{"source": "ChEMBL document CHEMBL3286241", "about": "“Dammarane-type triterpenoids from Gentianella azurea” (J Nat Prod, 2014)", "test_system": "RAW264.7", "test": "Antiinflammatory activity in mouse RAW264.7 cells assessed as inhibition of LPS-induced NO production after 24 hrs by Griess assay", "assay_type": "functional, cell-based", "settings": "RAW264.7, 24 h", "data": [{"compound": "CC1(C)O[C@](C(=O)O)([C@H]2CC[C@]3(C)[C@@H]2CC[C@@H]2[C@@]4(C)CC[C@H](O[C@@H]5O[C@H](CO)[C@@H](O)[C@H](O)[C@H]5O)[C@](C)(CO)[C@@H]4CC[C@]23C)C[C@H](O)[C@@H]1O", "note": "[GENTIRIGEOSIDE A]", "values": [{"measurement": "IC50", "result": 6.6, "unit": "µM"}]}, {"compound": "COc1ccc2c(c1)c(CC(=O)O)c(C)n2C(=O)c1ccc(Cl)cc1", "note": "[INDOMETHACIN]", "values": [{"measurement": "IC50", "result": 1.25, "unit": "µM"}]}]}
